In test [1] the target is T1, Suppressor of tumorigenicity 14 protein (Homo sapiens) (UniProt Q9Y5Y6).
T1 sequence (whole entry): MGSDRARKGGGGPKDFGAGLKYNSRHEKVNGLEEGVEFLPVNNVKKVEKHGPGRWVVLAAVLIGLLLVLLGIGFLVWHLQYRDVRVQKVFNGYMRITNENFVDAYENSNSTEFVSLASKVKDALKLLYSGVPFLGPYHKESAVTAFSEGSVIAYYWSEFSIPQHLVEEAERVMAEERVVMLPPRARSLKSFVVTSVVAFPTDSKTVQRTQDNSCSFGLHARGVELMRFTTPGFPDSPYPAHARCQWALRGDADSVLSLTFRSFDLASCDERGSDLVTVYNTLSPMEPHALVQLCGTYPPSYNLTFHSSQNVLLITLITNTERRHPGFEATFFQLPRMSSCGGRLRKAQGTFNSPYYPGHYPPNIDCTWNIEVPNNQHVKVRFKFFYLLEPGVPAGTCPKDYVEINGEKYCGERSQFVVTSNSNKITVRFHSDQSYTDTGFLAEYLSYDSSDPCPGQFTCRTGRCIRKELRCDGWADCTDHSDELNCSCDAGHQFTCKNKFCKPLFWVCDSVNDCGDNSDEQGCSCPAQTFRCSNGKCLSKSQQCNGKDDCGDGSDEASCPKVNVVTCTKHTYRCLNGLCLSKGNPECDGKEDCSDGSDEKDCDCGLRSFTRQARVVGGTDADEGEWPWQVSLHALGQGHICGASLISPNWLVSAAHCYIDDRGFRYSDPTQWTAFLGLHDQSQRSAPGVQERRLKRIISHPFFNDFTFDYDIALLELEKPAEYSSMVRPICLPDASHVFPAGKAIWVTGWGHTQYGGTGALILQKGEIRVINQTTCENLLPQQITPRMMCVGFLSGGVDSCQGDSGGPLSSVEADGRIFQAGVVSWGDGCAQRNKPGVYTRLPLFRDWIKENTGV
The experiment in a line: Binding affinity to recombinant hexahistidine tagged human MT-SP1 (596 to 855 residues) expressed in Escherichia coli BL21 gold (DE3) cells assessed as change in entropy by ITC analysis. Background: ITC needs no label: the signal is the heat of the interaction.

The target in test [2] is T1, Suppressor of tumorigenicity 14 protein (Homo sapiens). The experiment in a line: Binding affinity to recombinant hexahistidine tagged human MT-SP1 (596 to 855 residues) expressed in Escherichia coli BL21 gold (DE3) cells assessed as change in enthalpy by ITC analysis.
Test [3] has the same target. The test can be described thus: Binding affinity to recombinant hexahistidine tagged human MT-SP1 (596 to 855 residues) expressed in Escherichia coli BL21 gold (DE3) cells assessed as free energy change by ITC analysis.
Test [4] has as its target T2, Suppressor of tumorigenicity 14 protein (Homo sapiens, UniProt Q9Y5Y6).
T2 sequence (Q9Y5Y6 whole entry): T1 sequence (whole entry)
The test can be described thus: Inhibition of recombinant hexahistidine tagged human MT-SP1 (596 to 855 residues) expressed in Escherichia coli BL21 gold (DE3) cells using Boc-Leu-Arg-Arg-AMC as substrate measured every 30 secs for 10 mins by fluorescence based assay.

In test [5] the target is T2, Suppressor of tumorigenicity 14 protein. The test can be described thus: Binding affinity to recombinant hexahistidine tagged human MT-SP1 (596 to 855 residues) expressed in Escherichia coli BL21 gold (DE3) cells […] by ITC analysis.
Test [6] shares this target. The experiment in a line: Inhibition of human matriptase using Mes-D-Pro-Arg-AMC.2TFA as substrate incubated for 10 mins by fluorescence based assay.

From ChEMBL document CHEMBL5257156, “Improving binding entropy by higher ligand symmetry? - A case study with human matriptase” (RSC Med Chem, 2023) come the findings set out here.

A word on the Ki: it is a dissociation constant, usually derived from enzyme kinetics or from competition with a known ligand. As usually defined, the Kd is the constant that tells how readily two partners part at equilibrium. Take `NCc1ccc(Oc2cc(Oc3ccc(CN)cc3)cc(Oc3ccc(CN)cc3)c2)cc1`: the -TdeltaS in test [1] is -8.15 kcal/mol. The deltaH in test [2] was 1.24 kcal/mol. The deltaG in test [3] is -6.91 kcal/mol. Further, the Ki in test [4] amounted to 18.4 µM. The Kd in test [5] stood at 10.2 µM.

In the case of `N=C(N)c1ccc(CCNC(=O)C(C(=O)NCCc2ccc(C(=N)N)cc2)C(=O)NCc2ccc(C(=N)N)cc2)cc1` (stereo not given), the -TdeltaS in test [1] is -7.19 kcal/mol. In addition, in test [2], the deltaH is -1.63 kcal/mol. Also, the deltaG in test [3] is -8.82 kcal/mol. For the same molecule, the affinity in test [6], expressed as Ki, was 0.393 µM. Further, the Kd in test [5] was 0.392 µM.

With `N=C(N)c1ccc(CCNC(=O)CC(=O)NCCc2ccc(C(=N)N)cc2)cc1`, the -TdeltaS in test [1] was -4.64 kcal/mol. In addition, the deltaH in test [2] was -3.35 kcal/mol. The deltaG in test [3] was -7.98 kcal/mol. The molecule further returned a Ki in test [6] of 4.23 µM. Moreover, in test [5], the Kd amounted to 1.45 µM.

On to `N=C(N)c1ccc(Oc2cc(Oc3ccc(CN)cc3)cc(Oc3ccc(CN)cc3)c2)cc1`, for which, in test [1], the -TdeltaS is -9.7 kcal/mol. Also, the deltaH in test [2] amounted to 2.03 kcal/mol. For the same molecule, the deltaG in test [3] was -7.67 kcal/mol. Further, the inhibition constant Ki in test [4] was determined as 0.775 µM. For the same molecule, the dissociation constant Kd in test [5] stood at 2.52 µM.
